Results as given in ChEMBL document CHEMBL1201862, “PubChem BioAssay data set” (2004).
Calls of active or inactive are those of the source.

What was measured:
[1] = target: T1, Heat shock factor protein 1 (Mus musculus, UniProt P38532); test: HSF1 potentiators in luciferase reporter cells, confirmation, cell-based, NIH3T3, luminescence, dose retest (AID 435004); assay type: functional;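 note: stress induced by proteasome inhibitor MG132 added 30 min after compound; luciferase reporter driven by HSF1 response element in NIH3T3 cells; actives raise luminescence as potentiators of the MG132 stress response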
T1 sequence (P38532 whole entry): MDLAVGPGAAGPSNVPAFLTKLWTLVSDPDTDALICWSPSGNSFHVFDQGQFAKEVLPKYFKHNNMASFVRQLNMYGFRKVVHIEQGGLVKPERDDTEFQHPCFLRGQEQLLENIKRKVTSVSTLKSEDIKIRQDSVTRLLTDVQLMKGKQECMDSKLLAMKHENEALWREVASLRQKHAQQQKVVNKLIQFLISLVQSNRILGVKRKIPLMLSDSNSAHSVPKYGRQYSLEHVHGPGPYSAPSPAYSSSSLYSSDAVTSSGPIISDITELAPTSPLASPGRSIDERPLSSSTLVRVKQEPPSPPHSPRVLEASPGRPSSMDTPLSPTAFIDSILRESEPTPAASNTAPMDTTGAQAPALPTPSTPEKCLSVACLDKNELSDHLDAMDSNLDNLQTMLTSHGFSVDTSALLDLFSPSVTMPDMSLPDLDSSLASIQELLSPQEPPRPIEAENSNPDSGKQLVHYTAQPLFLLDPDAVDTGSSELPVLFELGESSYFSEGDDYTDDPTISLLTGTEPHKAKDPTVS

[2] = target: T2, Replicative DNA helicase DnaB (Mycobacterium tuberculosis, UniProt P9WMR3); test: DnaB intein splicing inhibitors, dose response, biochemical, cell-free fluorescence (AID 449749); assay type: functional
T2 sequence (P9WMR3 whole entry): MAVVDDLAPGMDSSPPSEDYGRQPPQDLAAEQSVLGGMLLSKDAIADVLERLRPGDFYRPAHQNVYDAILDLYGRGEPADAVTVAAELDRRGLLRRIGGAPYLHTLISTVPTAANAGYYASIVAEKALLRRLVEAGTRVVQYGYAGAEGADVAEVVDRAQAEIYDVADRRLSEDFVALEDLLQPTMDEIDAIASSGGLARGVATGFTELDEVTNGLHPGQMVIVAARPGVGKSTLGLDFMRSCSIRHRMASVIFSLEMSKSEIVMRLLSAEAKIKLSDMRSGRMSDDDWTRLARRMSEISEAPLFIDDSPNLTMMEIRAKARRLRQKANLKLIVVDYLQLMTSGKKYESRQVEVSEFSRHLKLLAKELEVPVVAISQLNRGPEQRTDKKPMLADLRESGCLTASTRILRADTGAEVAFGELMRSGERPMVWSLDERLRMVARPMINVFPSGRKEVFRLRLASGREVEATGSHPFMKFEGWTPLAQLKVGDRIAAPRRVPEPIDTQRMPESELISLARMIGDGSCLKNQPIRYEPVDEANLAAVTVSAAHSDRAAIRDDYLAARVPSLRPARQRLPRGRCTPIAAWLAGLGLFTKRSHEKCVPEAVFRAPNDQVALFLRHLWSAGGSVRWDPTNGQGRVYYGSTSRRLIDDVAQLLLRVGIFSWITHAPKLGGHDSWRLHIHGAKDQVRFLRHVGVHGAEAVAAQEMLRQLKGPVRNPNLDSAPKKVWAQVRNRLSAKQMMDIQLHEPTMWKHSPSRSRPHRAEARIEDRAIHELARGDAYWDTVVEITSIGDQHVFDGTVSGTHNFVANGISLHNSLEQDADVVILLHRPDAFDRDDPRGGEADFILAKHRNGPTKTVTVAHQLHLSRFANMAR

Protein RecA = target: T3, Protein RecA (Mycobacterium tuberculosis, UniProt P9WHJ3); test: Fluorescence Cell-Free Homogeneous Dose Retest to Identify Inhibitors of RecA-Intein Splicing Activity. [Related pubchem assays (depositor defined):AID2097, AID2223, AID489010, AID492950]; assay type: functional
T3 sequence (P9WHJ3 whole entry): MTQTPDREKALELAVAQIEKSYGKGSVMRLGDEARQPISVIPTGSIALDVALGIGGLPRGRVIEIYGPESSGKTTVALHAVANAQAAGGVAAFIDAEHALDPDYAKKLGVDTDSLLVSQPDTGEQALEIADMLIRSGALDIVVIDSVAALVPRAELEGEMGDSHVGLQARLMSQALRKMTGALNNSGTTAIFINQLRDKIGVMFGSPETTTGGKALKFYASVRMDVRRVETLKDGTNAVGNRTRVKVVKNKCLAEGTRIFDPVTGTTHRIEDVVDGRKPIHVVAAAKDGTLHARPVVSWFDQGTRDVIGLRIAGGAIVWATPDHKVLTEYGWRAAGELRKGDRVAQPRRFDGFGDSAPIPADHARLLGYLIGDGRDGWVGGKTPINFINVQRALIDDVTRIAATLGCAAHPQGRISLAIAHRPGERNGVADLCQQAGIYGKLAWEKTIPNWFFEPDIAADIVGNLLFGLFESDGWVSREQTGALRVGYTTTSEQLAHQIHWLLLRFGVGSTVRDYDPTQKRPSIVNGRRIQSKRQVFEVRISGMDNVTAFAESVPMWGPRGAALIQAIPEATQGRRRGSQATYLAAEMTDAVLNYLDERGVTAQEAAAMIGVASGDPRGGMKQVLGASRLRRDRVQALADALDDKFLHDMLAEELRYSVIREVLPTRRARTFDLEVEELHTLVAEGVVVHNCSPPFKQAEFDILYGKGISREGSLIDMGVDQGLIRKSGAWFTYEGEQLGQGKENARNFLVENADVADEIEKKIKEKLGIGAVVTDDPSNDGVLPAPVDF

[3] = inhibitors of intracellular T. cruzi replication, confirmation, NIH3T3 host cells, beta-gal luminescence (AID 2044); assay type: functional, cell-based;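 note: intracellular parasites grown in NIH/3T3 mouse fibroblasts as host cells; luminescent beta-galactosidase reporter signal from transgenic T. cruzi replicating inside host cells; inhibitors lower the luminescence signal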
[4] = cytotoxicity toward NIH3T3 fibroblasts, dose response, counter-screen, cell-based, ATP luminescence, mouse fibroblasts (AID 2010); assay type: functional;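 note: cells exposed to compound for about 90 hours before reading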
[5] = target: T4, Microphthalmia-associated transcription factor (Homo sapiens, UniProt O75030); test: TRPM1 promoter luciferase signal decrease, dose response, MITF inhibitor project, cell-based, SK-MEL-5, cherry-picked, set 3 (AID 493073); assay type: functional
T4 sequence (O75030 whole entry): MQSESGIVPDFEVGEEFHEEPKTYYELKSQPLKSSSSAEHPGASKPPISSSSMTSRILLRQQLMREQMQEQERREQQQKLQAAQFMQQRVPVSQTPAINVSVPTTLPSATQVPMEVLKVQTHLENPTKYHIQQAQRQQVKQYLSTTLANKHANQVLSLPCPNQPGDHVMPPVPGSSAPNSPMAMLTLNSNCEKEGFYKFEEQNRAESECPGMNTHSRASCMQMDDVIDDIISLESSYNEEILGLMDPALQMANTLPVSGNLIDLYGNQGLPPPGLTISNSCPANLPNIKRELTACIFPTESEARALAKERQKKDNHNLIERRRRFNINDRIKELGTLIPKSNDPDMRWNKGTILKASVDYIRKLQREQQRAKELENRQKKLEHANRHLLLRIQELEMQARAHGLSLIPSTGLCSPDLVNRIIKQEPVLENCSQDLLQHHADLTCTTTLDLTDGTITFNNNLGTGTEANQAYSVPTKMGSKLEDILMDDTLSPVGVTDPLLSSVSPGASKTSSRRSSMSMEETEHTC

[6] = target: T1, Heat shock factor protein 1; test: inhibition of MG132-induced HSE-luciferase signal, confirmation, cell-based, NIH3T3, luminescence, dose retest (AID 2382); assay type: functional;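 note: NIH3T3 fibroblasts with HSF1-driven luciferase reporter stressed by proteasome inhibitor MG132; luminescence from HSF1-driven luciferase expression after 8 hours of MG132 stress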
Paired box protein Pax-8 = Paired box protein Pax-8 (Homo sapiens, UniProt Q06710); test: inhibitors of PAX8-driven TPO luciferase reporter, dose response, RMG-I cells, cherry-pick (AID 687027); assay type: functional, cell-based;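 note: luciferase reporter driven by Pax8 target thyroperoxidase promoter measured by SteadyGlo luminescence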
Chain of Paired box protein Pax-8 (Q06710 whole entry): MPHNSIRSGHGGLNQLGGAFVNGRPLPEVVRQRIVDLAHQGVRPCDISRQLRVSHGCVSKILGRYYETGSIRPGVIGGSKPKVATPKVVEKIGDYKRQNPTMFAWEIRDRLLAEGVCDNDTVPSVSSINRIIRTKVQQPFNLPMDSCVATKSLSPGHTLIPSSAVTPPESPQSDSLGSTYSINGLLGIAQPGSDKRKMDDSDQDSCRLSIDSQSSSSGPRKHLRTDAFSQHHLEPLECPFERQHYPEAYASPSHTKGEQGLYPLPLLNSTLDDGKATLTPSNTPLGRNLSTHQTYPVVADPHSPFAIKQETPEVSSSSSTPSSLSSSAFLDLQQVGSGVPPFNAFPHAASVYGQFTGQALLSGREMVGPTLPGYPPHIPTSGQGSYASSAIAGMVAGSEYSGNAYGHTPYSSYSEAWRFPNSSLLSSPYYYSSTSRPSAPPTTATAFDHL

Large T antigen = Large T antigen (Simian virus 40, UniProt P03070); assay type: functional, Betapolyomavirus macacae;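 note: Confirmatory-stage PubChem screen for compounds that inhibit SV40 T antigen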
Chain of Large T antigen (P03070 whole entry): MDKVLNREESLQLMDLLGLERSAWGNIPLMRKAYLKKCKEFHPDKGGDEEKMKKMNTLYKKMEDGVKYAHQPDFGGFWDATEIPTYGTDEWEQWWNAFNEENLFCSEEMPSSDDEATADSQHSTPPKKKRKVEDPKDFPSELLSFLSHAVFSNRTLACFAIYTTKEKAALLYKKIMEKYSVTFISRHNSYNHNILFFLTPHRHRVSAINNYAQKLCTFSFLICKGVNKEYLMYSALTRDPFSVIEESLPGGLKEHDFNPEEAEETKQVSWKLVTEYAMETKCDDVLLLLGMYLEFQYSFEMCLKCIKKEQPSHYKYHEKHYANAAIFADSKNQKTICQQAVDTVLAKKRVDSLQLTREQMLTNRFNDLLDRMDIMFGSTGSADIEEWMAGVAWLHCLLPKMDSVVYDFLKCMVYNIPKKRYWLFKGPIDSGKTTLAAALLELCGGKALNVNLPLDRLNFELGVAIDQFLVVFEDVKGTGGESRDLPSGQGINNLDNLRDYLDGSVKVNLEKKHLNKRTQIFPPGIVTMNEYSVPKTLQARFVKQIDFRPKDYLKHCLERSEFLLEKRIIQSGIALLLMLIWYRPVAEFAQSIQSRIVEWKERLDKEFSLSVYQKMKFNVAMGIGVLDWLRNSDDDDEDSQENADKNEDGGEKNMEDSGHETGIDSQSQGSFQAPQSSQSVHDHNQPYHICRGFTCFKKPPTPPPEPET

[7] = target: T5, Rac GTPase-activating protein 1 (Homo sapiens, UniProt Q9H0H5); test: MgcRacGAP GTPase-activating activity inhibitors, confirmation, biochemical, ADP Hunter fluorescence, primary and confirmatory (AID 624330); assay type: functional
T5 sequence (Q9H0H5 whole entry): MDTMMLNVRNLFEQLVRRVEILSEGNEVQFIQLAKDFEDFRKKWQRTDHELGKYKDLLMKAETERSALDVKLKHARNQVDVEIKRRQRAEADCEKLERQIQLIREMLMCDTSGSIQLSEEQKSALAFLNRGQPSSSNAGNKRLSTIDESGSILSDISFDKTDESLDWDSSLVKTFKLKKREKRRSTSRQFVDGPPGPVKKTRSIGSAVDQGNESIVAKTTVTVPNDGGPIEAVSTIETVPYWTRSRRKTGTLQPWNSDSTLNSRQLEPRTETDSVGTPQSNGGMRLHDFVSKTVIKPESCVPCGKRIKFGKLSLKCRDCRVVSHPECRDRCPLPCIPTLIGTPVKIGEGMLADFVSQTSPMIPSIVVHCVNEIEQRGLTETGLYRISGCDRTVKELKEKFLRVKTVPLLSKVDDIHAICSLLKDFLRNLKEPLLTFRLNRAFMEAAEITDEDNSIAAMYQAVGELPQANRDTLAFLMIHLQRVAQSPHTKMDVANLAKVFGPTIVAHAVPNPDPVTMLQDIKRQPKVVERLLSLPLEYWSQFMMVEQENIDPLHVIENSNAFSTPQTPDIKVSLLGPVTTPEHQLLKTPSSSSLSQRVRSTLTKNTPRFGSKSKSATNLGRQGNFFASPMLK

INS1 = test: beta cell apoptosis inhibitors, cytokine rescue, dose response, luminescence, retest (AID 449756); assay type: functional, cell-based; details: Rattus norvegicus;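 note: cell death triggered by IL-1 beta plus TNF-alpha plus IFN-gamma mixture; protective hits raise ATP signal compared with cytokine alone wells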
[8] = target: Luciferin 4-monooxygenase (Photinus pyralis, UniProt P08659); test: firefly luciferase enzyme inhibitors, dose response, biochemical, luminescence (AID 1891)
Chain of Luciferin 4-monooxygenase (P08659 whole entry): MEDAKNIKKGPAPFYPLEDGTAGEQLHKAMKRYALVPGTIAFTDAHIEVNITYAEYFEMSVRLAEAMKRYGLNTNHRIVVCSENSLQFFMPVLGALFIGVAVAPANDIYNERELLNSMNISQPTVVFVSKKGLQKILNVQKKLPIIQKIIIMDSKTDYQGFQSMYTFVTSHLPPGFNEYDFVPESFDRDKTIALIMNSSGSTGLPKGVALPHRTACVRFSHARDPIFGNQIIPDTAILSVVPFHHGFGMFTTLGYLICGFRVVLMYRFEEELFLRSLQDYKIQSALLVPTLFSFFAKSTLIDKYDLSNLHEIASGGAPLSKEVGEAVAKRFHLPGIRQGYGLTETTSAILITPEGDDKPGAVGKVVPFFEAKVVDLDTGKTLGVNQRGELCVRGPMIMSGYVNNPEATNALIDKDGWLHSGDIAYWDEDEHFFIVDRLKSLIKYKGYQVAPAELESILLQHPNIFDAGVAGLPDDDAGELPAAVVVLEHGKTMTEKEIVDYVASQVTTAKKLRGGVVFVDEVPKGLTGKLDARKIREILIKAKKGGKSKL

[9] = Luminescence Cell-Based Dose Confirmation HTS to Identify Inhibitors of Platelet Dense Granule Release. [Related pubchem assays: 1663 (Primary HTS), 1678 (Summary of Project)]; assay type: functional
Cytochrome P450 1A2 = target: T6, Cytochrome P450 1A2 (Homo sapiens, UniProt P05177);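 note: PubChem cytochrome P450 panel assay, CYP1A2 panel member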
T6 sequence (P05177 whole entry): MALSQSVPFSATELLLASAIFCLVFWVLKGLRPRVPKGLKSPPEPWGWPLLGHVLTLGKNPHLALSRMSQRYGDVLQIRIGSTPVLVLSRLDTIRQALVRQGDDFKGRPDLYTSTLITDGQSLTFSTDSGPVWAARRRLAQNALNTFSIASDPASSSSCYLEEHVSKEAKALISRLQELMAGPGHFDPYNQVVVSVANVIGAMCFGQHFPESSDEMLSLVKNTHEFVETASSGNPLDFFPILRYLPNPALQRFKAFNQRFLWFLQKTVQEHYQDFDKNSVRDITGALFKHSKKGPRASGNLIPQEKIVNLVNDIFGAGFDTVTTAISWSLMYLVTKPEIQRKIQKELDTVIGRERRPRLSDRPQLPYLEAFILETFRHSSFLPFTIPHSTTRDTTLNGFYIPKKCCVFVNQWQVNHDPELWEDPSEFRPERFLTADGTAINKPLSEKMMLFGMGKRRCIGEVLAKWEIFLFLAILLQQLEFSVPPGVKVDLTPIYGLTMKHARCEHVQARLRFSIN

Nonstructural protein 1 = Nonstructural protein 1 (Influenza A virus, UniProt Q194T2); assay type: functional, Influenza A virus (A/California/07/2009(H1N1))
Chain of Nonstructural protein 1 (Q194T2 whole entry): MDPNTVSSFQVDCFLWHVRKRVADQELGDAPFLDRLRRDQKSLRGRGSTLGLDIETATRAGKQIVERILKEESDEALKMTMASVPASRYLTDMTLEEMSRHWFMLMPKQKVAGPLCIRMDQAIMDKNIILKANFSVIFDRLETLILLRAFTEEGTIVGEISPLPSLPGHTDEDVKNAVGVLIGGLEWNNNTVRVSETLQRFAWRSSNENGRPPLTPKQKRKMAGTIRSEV

## COc1ccc(CCNC(=O)Nc2cccc([N+](=O)[O-])c2)cc1OC
[1]
  EC50: > 260 µM (inactive)

## CC1=NN(c2ccccc2)C(=O)C1=C(C)C
[2]
  AC50: 5.6 µM (active)
Protein RecA
  EC50: 2.46 µM (active)

## CC(C)OC(=O)c1c(NC(=O)Cn2cnc([N+](=O)[O-])n2)sc2c1CCCC2
[3]
  EC50: 0.203 µM (active)
[4]
  EC50: > 60 µM (not active)
[1]
  EC50: > 260 µM (inactive)

## C=C1CCC[C@]2(C)C[C@H]3OC(=O)C(CN4CCCCC4CO)[C@H]3CC12 (some centres undefined)
[5]
  AC50: 11 µM (active)

## Cc1cccc2sc(N(CCCN(C)C)C(=O)c3nc4ccccc4s3)nc12
[5]
  AC50: 10.9 µM (active)

## CCCc1n[nH]c(O)c1C(c1ccc(Cl)cc1)C(C#N)C#N (centres undefined)
[2]
  AC50: 8.44 µM (active)
Protein RecA
  EC50: 4.14 µM (active)

## Cc1ccc(O)c(NC(=O)CSc2n[nH]c(-c3ccccc3)n2)c1
[1]
  EC50: 10 µM (active)

## CSc1sc(C(=O)Nc2ccc(F)cc2F)c2c1C=CCC2
[1]
  EC50: > 260 µM (inactive)

## Cc1ccc(-n2cc(CNCCN3CCOC3=O)c(-c3cccc(C)c3)n2)cc1
[1]
  EC50: > 260 µM (inactive)

## CCC(=O)N1CCN(c2ccc(NC(=O)c3ccc([N+](=O)[O-])o3)cc2)CC1
[6]
  EC50: > 195 µM (not active)
[3]
  EC50: 5.98 µM (active)
[4]
  EC50: 7.54 µM (active)
[5]
  AC50: 8.68 µM (active)
Paired box protein Pax-8
  AC50: 5.31 µM (active)

## CC1CN(C(=S)NC(=O)C2CCCCC2)CC(C)O1 (centres undefined)
[1]
  EC50: > 260 µM (inactive)

## CN(C)c1ccc(NC2=C([N+](=O)[O-])CS(=O)(=O)C2)cc1
Large T antigen
  IC50: 5.71 µM (active)
[7]
  IC50: 42.7 µM (active)

## O=c1c2ccccc2nc(SCc2nnc(-c3ccccc3Br)o2)n1Cc1ccco1
[1]
  EC50: > 260 µM (inactive)

## O=C(c1ccc(N2CCN(CCO)CC2)nc1)N1CCOCC1
[2]
  AC50: > 380 µM (inactive)
Protein RecA
  EC50: > 380 µM (inactive)

## C/C(CC(=O)Nc1cc(C)ccn1)=N\NC(=O)c1ccncc1
[2]
  AC50: 7.32 µM (active)
Protein RecA
  EC50: 4.03 µM (active)

## O=C(N/N=C/C=C(\O)c1ccc([N+](=O)[O-])cc1)c1ccccc1
[3]
  EC50: 2.02 µM (active)
[4]
  EC50: 17.6 µM (active)
[5]
  AC50: 9.19 µM (active)
INS1
  AC50: 1.76 µM (active)

## COc1cc(/C=N/NC(N)=O)c(Br)cc1OCC(=O)Nc1ccccc1C
[8]
  EC50: > 112 µM (not active)
[9]
  EC50: > 112 µM (not active)
[5]
  AC50: 17.8 µM (active)
Cytochrome P450 1A2
  AC50: 14.1 µM (inconclusive)

## COc1cc(C(=O)NCC(=O)N/N=C/c2cccc(OC(=O)c3ccco3)c2)cc(OC)c1OC
[2]
  AC50: 36 µM (active)
Protein RecA
  EC50: 16.6 µM (active)

## O=C1C=CC(=C(c2ccc(O)cc2)c2ccc(O)cc2)C=C1 [AURIN]
Nonstructural protein 1
  IC50: 59.1 µM (active)
[5]
  AC50: 9.92 µM (active)
Paired box protein Pax-8
  AC50: 8.81 µM (active)
